PubChem BioAssay AID434967 (Sanford-Burnham Center for Chemical Genomics, 2010)

assay: HIV fusion inhibitor analogs, peptide binding, SAR follow-up, biochemical, fluorescence quenching (AID 434967); conditions: cell-free peptide binding, 30 min

SMILES	IC50 [µM]
O=C(O)c1cc(NN=Cc2ccc(-c3ccccc3)cc2)ccc1Cl	14.8
N#C/C(=C\c1ccc(O)c([N+](=O)[O-])c1)c1nc2ccccc2s1	6.25
COc1ccc(C(=O)Oc2ccc(C=NNc3ccc(Cl)c(C(=O)O)c3)cc2OC)cc1	5.16
O=C(O)c1ccccc1N=Nc1c(O)[nH]c2ccc([N+](=O)[O-])cc12	13.3
COc1cc(C=NNc2ccc(Cl)c(C(=O)O)c2)ccc1OC(=O)c1ccccc1F	25.9
Cc1c2c(=O)n(-c3nc4ccccc4s3)nc-2cc(O)n1Cc1ccccc1	10.1
CCOC(=O)c1sc(N2C(=O)C(O)=C(C(=O)c3ccc(C)o3)C2c2cccc([N+](=O)[O-])c2)nc1C (stereo not given)	10.5
O=C(N/N=C/c1c(O)n(C2CCCCC2)c(=S)[nH]c1=O)c1ccccc1O	9
CC(C)(C)c1cc(-c2csc(Nc3ccccc3)[n+]2Cc2ccc(C(=O)O)cc2)cc(C(C)(C)C)c1O	27.3
COc1cc(C=NNc2ccc(Cl)c(C(=O)O)c2)ccc1OC(=O)c1ccc(F)cc1	8.03
